The target of this test is T1, α4β1 integrin (Homo sapiens, UniProt P05556+P13612).
T1 construct: endogenous in cells; host or cells: Ramos cells
Kind of test: Adhesion of calcein-labeled Ramos cells to CS1 (fibronectin) peptide conjugated ovalbumin. As to conditions: Table 6; Ramos cell adhesion to CS1 conjugated ovalbumin, 30 minutes at 37° C. Type of test: cell-based. The essentials:
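Plates bearing CS1 fibronectin peptide coupled to ovalbumin (0.5 μg/ml coat, 3% BSA block) received calcein-labelled Ramos cells plus compound (100 μM stated) for 30 min at 37 °C. Buffer was TBS pH 7.5 with 1 mM Mg2+, Ca2+, Mn2+; bound cells quantified by fluorescence after lysis; […].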

T1 sequence (P13612 34-1032): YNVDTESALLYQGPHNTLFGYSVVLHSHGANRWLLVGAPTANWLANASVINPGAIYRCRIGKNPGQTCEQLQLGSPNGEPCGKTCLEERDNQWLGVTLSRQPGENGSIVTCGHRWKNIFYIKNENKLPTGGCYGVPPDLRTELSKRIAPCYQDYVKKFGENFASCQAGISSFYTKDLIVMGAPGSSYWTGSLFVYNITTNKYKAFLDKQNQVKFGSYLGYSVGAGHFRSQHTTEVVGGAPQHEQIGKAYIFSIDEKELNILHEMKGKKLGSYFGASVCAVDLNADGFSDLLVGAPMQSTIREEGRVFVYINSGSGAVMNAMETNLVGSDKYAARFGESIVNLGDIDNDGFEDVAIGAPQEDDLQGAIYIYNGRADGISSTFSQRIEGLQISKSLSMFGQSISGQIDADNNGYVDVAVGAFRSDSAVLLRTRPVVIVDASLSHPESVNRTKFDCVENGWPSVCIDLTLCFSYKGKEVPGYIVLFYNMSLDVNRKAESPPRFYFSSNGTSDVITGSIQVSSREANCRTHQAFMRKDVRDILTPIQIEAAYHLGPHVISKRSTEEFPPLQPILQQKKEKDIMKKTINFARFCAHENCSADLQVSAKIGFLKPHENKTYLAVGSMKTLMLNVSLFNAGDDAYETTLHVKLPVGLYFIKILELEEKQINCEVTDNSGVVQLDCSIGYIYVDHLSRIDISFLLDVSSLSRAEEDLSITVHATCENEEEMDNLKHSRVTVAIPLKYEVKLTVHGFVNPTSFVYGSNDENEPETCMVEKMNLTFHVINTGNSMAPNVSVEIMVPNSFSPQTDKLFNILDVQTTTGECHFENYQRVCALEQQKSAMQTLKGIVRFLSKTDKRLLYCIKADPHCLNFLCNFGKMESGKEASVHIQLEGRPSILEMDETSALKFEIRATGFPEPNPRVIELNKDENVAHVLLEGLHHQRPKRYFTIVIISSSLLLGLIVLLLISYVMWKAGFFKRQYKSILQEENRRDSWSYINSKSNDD
T1 sequence (P05556 21-798): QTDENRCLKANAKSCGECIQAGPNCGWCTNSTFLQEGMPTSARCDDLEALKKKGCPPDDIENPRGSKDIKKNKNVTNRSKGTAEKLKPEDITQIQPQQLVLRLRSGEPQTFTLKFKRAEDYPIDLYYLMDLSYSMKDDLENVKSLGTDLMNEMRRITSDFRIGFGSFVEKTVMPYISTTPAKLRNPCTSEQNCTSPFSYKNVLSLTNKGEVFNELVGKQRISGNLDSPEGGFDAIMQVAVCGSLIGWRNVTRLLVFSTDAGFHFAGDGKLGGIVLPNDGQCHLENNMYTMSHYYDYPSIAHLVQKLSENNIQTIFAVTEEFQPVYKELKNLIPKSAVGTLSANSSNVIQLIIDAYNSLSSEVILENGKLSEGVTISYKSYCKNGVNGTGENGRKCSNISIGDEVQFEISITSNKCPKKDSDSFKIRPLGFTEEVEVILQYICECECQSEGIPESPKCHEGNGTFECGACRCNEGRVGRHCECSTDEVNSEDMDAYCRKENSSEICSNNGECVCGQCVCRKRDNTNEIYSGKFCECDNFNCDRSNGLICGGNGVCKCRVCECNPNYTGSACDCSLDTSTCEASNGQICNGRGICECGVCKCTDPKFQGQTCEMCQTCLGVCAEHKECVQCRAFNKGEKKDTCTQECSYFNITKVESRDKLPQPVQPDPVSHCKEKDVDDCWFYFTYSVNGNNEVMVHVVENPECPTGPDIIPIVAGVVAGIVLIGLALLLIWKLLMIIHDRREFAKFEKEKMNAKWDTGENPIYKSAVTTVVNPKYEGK

What is called IC50 is the concentration needed to halve the response being measured. Turning to `O=C(O)CC(NC(=O)Nc1c(O)ccn(Cc2ccccc2Cl)c1=O)c1cc2ccccc2o1` (stereo not shown), the IC50 is 140 nM.

As to `Cc1cn(Cc2ccccc2Cl)c(=O)c(NC(=O)NC(CC(=O)O)c2ccc(-c3ccccc3)cc2)c1O` (stereo not shown), the IC50 is 130 nM.

For the compound `COc1ccc2cc(C(CC(=O)O)NC(=O)Nc3c(O)c(C)cn(Cc4c(C)cccc4Cl)c3=O)ccc2c1` (stereo not shown), the IC50 was 35 nM. `Cc1cc(C(CC(=O)O)NC(=O)Nc2c(O)ccn(Cc3ccccc3Cl)c2=O)oc1C` (stereo not shown): the IC50 is 115 nM. `COc1ccc2cc(C(CC(=O)O)NC(=O)Nc3c(O)ccn(Cc4ccccc4Cl)c3=O)ccc2c1` (stereo not shown): the IC50 was 15 nM. The same measure for `COc1ccc(C(CC(=O)O)NC(=O)Nc2c(O)ccn(Cc3ccccc3Cl)c2=O)c2ccccc12` (stereo not shown): 160 nM; for `O=C(O)CC(NC(=O)Nc1c(O)ccn(Cc2ccccc2Cl)c1=O)c1cccs1` (stereo not shown): 30 nM; for `O=C(O)CC(NC(=O)Nc1c(O)ccn(Cc2ccccc2Cl)c1=O)c1ccc2ccccc2n1` (stereo not shown): 105 nM. `O=C(O)C[C@@H](Cc1cccc2ccccc12)NC(=O)Nc1c(O)ccn(Cc2ccccc2Cl)c1=O`: the IC50 is 2500 nM.

On to `O=C(O)C[C@@H](Cc1ccccc1Cl)NC(=O)Nc1c(O)ccn(Cc2ccccc2Cl)c1=O`, for which the IC50 was 700 nM. As for `O=C(O)C[C@@H](CCc1ccccc1)NC(=O)Nc1c(O)ccn(Cc2ccccc2Cl)c1=O`, the 50% inhibitory concentration (IC50) was 115 nM. Turning to `CCCCOc1cccc([C@H](CC(=O)O)NC(=O)Nc2c(O)c3c(n(Cc4ccccc4Cl)c2=O)CCC3)c1`, the IC50 was 20 nM. The same measure for `Cc1ccc([C@H](CC(=O)O)NC(=O)Nc2c(O)c(C)cn(Cc3cc(OC(C)C)ccc3Cl)c2=O)cc1`: 7 nM; for `CCOc1cccc(Cl)c1Cn1ccc(O)c(NC(=O)N[C@@H](CC(=O)O)c2ccc(C)cc2)c1=O`: 7 nM. In the case of `CCOc1cccc([C@H](CC(=O)O)NC(=O)Nc2c(O)c(CC)cn(Cc3c(Cl)cccc3OCC)c2=O)c1`, the IC50 was 4 nM. With `CCCc1cn(Cc2c(Cl)cccc2OC)c(=O)c(NC(=O)N[C@@H](CC(=O)O)c2ccc(C)c(C)c2)c1O`, the IC50 was 17 nM. Take `COc1cccc(Cl)c1Cn1cc(C)c(O)c(NC(=O)N[C@@H](CC(=O)O)c2ccc(C)c(C)c2)c1=O`: the IC50 was 3 nM. The result for `CCCc1cn(Cc2c(Cl)cccc2OC)c(=O)c(NC(=O)N[C@@H](CC(=O)O)c2ccc(C)c(OC)c2)c1O` reads 15 nM; that for `CCOc1cccc([C@H](CC(=O)O)NC(=O)Nc2c(O)c(C)cn(Cc3c(Cl)cccc3OC)c2=O)c1`, 3 nM.

Consider `CCCc1cn(Cc2c(Cl)cccc2OC)c(=O)c(NC(=O)N[C@@H](CC(=O)O)c2cccc(OCC)c2)c1O`, for which the IC50 was 7 nM. The same measure for `COc1cc([C@H](CC(=O)O)NC(=O)Nc2c(O)c(C)cn(Cc3c(Cl)cccc3OC)c2=O)ccc1C`: 6 nM; for `COc1cccc(Cl)c1Cn1cc(C)c(O)c(NC(=O)N[C@@H](CC(=O)O)c2ccc(C)cc2)c1=O`: 5 nM; for `CCCc1cn(Cc2c(Cl)cccc2OC)c(=O)c(NC(=O)N[C@@H](CC(=O)O)c2ccc(OCC)c(OCC)c2)c1O`: 3 nM.

Turning to `CCCc1cn(Cc2c(Cl)cccc2OC)c(=O)c(NC(=O)N[C@@H](CC(=O)O)c2ccc(C)cc2)c1O`, the IC50 was 15 nM. `Cc1ccc([C@H](CC(=O)O)NC(=O)Nc2c(O)c3c(n(Cc4c(C)cccc4Cl)c2=O)CCC3)cc1`: the IC50 was 20 nM. Turning to `CCOc1cccc([C@H](CC(=O)O)NC(=O)Nc2c(O)c(C)cn(Cc3c(C)cccc3Cl)c2=O)c1`, the IC50 was 4 nM.

Regarding `COc1cc([C@H](CC(=O)O)NC(=O)Nc2c(O)c(C)cn(Cc3c(C)cccc3Cl)c2=O)ccc1C`, the IC50 is 25 nM. For `Cc1ccc([C@H](CC(=O)O)NC(=O)Nc2c(O)c(C)cn(Cc3c(C)cccc3Cl)c2=O)cc1C`, the 50% inhibitory concentration (IC50) was 45 nM. The result for `CCOc1cc(OCC)cc([C@H](CC(=O)O)NC(=O)Nc2c(O)ccn(Cc3ccccc3Cl)c2=O)c1` reads 7 nM; that for `O=C(O)C[C@H](NC(=O)Nc1c(O)ccn(Cc2ccccc2Cl)c1=O)c1ccccn1`, 150 nM. In the case of `Cc1ccc([C@H](CC(=O)O)NC(=O)Nc2c(O)c3ccccc3n(Cc3ccccc3Cl)c2=O)cc1C`, the IC50 was 25 nM. For `Cn1ccc2cc([C@H](CC(=O)O)NC(=O)Nc3c(O)ccn(Cc4ccccc4Cl)c3=O)ccc21`, the IC50 is 3 nM. The same measure for `CCOc1ccc([C@H](CC(=O)O)NC(=O)Nc2c(O)c3ccccc3n(Cc3ccccc3Cl)c2=O)cc1OCC`: 4 nM. Regarding `COc1cc([C@H](CC(=O)O)NC(=O)Nc2c(O)c3ccccc3n(Cc3ccccc3Cl)c2=O)ccc1C`, the IC50 was 14 nM. For `O=C(O)C[C@H](NC(=O)Nc1c(O)ccn(Cc2ccccc2Cl)c1=O)c1cccc(OC2CCCC2)c1`, the IC50 was 5 nM. With `O=C(O)C[C@H](NC(=O)Nc1c(O)ccn(Cc2ccccc2Cl)c1=O)c1cccc(OC(F)(F)C(F)F)c1`, the IC50 was 15 nM. Turning to `O=C(O)C[C@H](NC(=O)Nc1c(O)ccn(Cc2ccccc2Cl)c1=O)c1ccc(OC(F)F)cc1`, the IC50 is 30 nM. On to `CCOc1cccc([C@H](CC(=O)O)NC(=O)Nc2c(O)c3ccccc3n(Cc3ccccc3Cl)c2=O)c1`, for which the IC50 is 12 nM.

As to `COc1ccc2cc([C@H](CC(=O)O)NC(=O)Nc3c(O)ccn(Cc4ccccc4Cl)c3=O)ccc2c1`, the IC50 is 15 nM. As to `Cc1ccc([C@H](CC(=O)O)NC(=O)Nc2c(O)c3c(n(Cc4ccccc4Cl)c2=O)CCC3)cc1C`, the half-inhibitory concentration (IC50) is 18 nM. For `O=C(O)C[C@H](NC(=O)Nc1c(O)c2c(n(Cc3ccccc3Cl)c1=O)CCC2)c1cccc(OCC(F)(F)F)c1`, the IC50 was 30 nM. As for `CCOc1cccc([C@H](CC(=O)O)NC(=O)Nc2c(O)c3c(n(Cc4ccccc4Cl)c2=O)CCC3)c1`, the IC50 was 3 nM. The same measure for `Cc1ccc([C@H](CC(=O)O)NC(=O)Nc2c(O)c(C(C)C)cn(Cc3ccccc3Cl)c2=O)cc1`: 60 nM; for `COc1cccc([C@H](CC(=O)O)NC(=O)Nc2c(O)c(C)cn(Cc3ccccc3Cl)c2=O)c1`: 3 nM. On to `Cc1cn(Cc2ccccc2Cl)c(=O)c(NC(=O)N[C@@H](CC(=O)O)c2cccc(OC(C)C)c2)c1O`, for which the IC50 is 3 nM. Consider `CCOc1cc(OCC)cc([C@H](CC(=O)O)NC(=O)Nc2c(O)c(C)cn(Cc3ccccc3Cl)c2=O)c1`, for which the IC50 is 3 nM. Regarding `Cc1cn(Cc2ccccc2Cl)c(=O)c(NC(=O)N[C@@H](CC(=O)O)c2ccc3c(ccn3C)c2)c1O`, the IC50 was 3 nM.

On to `Cc1cn(Cc2ccccc2Cl)c(=O)c(NC(=O)N[C@@H](CC(=O)O)c2cccc(OC3CCCC3)c2)c1O`, for which the half-inhibitory concentration (IC50) was 15 nM. `Cc1cn(Cc2ccccc2Cl)c(=O)c(NC(=O)N[C@@H](CC(=O)O)c2ccc(OC(F)(F)F)cc2)c1O`: the IC50 was 70 nM.

On to `Cc1ccc([C@H](CC(=O)O)NC(=O)Nc2c(O)c(C)cn(Cc3ccccc3Cl)c2=O)cc1C`, for which the IC50 was 15 nM. Consider `Cc1cn(Cc2ccccc2Cl)c(=O)c(NC(=O)N[C@@H](CC(=O)O)c2cccc(OCC(F)(F)F)c2)c1O`, for which the IC50 was 15 nM. `Cc1cn(Cc2ccccc2Cl)c(=O)c(NC(=O)N[C@@H](CC(=O)O)c2cccc(C(F)(F)F)c2)c1O`: the IC50 was 10 nM. As to `COc1ccc2cc([C@H](CC(=O)O)NC(=O)Nc3c(O)c(C)cn(Cc4ccccc4Cl)c3=O)ccc2c1`, the IC50 was 5 nM. On to `Cc1cn(Cc2ccccc2Cl)c(=O)c(NC(=O)N[C@@H](CC(=O)O)c2cccc(OC(F)(F)F)c2)c1O`, for which the IC50 is 10 nM. Consider `Cc1ccc([C@H](CC(=O)O)NC(=O)Nc2c(O)c(C)c(C)n(Cc3ccccc3Cl)c2=O)cc1C`, for which the IC50 was 40 nM. Turning to `CCOc1ccc([C@H](CC(=O)O)NC(=O)Nc2c(O)c(C3CC3)cn(Cc3ccccc3Cl)c2=O)cc1OCC`, the IC50 was 6 nM.

Regarding `Cc1ccc([C@H](CC(=O)O)NC(=O)Nc2c(O)c(C3CC3)cn(Cc3ccccc3Cl)c2=O)cc1`, the IC50 was 20 nM. The result for `CCOc1cccc([C@H](CC(=O)O)NC(=O)Nc2c(O)c(C3CC3)cn(Cc3ccccc3Cl)c2=O)c1` reads 14 nM. Turning to `Cc1ccc([C@H](CC(=O)O)NC(=O)Nc2c(O)c(C)cn(Cc3c(F)cccc3C(F)(F)F)c2=O)cc1`, the IC50 is 100 nM. In the case of `COc1cccc(F)c1Cn1cc(C)c(O)c(NC(=O)N[C@@H](CC(=O)O)c2ccc(C)cc2)c1=O`, the IC50 was 10 nM. Regarding `Cc1ccc([C@H](CC(=O)O)NC(=O)Nc2c(O)c(C)cn(Cc3c(Cl)cccc3Cl)c2=O)cc1`, the IC50 is 20 nM. As to `Cc1ccc([C@H](CC(=O)O)NC(=O)Nc2c(O)c(C)cn(Cc3cccc(Cl)c3)c2=O)cc1`, the IC50 was 20 nM. `Cc1ccc([C@H](CC(=O)O)NC(=O)Nc2c(O)c3c(n(Cc4ccc(Cl)cc4)c2=O)CCC3)cc1`: the half-inhibitory concentration (IC50) was 50 nM. Regarding `COc1ccc(C(C)=O)cc1Cn1ccc(O)c(NC(=O)N[C@@H](CC(=O)O)c2ccc(C)cc2)c1=O`, the concentration for half-maximal inhibition (IC50) was 33 nM. The same measure for `Cc1ccc([C@H](CC(=O)O)NC(=O)Nc2c(O)c(C)cn(Cc3cc(Cl)ccc3F)c2=O)cc1`: 15 nM; for `Cc1ccc([C@H](CC(=O)O)NC(=O)Nc2c(O)c(C)cn(Cc3cc(F)ccc3C)c2=O)cc1`: 20 nM. In the case of `Cc1ccc([C@H](CC(=O)O)NC(=O)Nc2c(O)c(C)nn(Cc3ccccc3Cl)c2=O)cc1`, the IC50 was 18 nM. For the compound `CCOc1ccc([C@H](CC(=O)O)NC(=O)Nc2c(O)c(C)nn(Cc3ccccc3Cl)c2=O)cc1OCC`, the IC50 was 3 nM. For `CCOc1cccc([C@H](CC(=O)O)NC(=O)Nc2c(O)c(C)nn(Cc3ccccc3Cl)c2=O)c1`, the IC50 is 5 nM. On to `CCOc1cc(OCC)cc([C@H](CC(=O)O)NC(=O)Nc2c(O)c(C)nn(Cc3ccccc3Cl)c2=O)c1`, for which the IC50 was 10 nM. For `CSc1cccc(Cn2ccc(O)c(NC(=O)N[C@@H](CC(=O)O)c3ccc(C)cc3)c2=O)c1`, the IC50 was 20 nM. `Cc1ccc(Cn2cc(C)c(O)c(NC(=O)N[C@@H](CC(=O)O)c3ccc(C)cc3)c2=O)cc1`: the IC50 was 150 nM. As for `Cc1ccc([C@H](CC(=O)O)NC(=O)Nc2c(O)c(C)cn([C@@H](C)c3ccccc3)c2=O)cc1`, the IC50 was 1500 nM.

The values are drawn from patent US6972296B2, “Carboxylic acid derivatives that inhibit the binding of integrins to their receptors” (Encysive Pharmaceuticals Inc., priority 1999, dated 2005).
